Entries after “also recorded” stand apart in the source; their conditions may differ.
Experiments:
[1] = system: HT22 cells; test: Oxidative glutamate toxicity (MTT cell viability); type: cell-based; conditions: 5 mM glutamate, fisetin, 24 hr
Protocol: Cell viability was determined by a modified version of 3-(4,5-dimethylthiazol-2-yl)-2,5-diphenyl tetrazolium bromide (MTT) assay based on the standard procedure (Hansen M B et al. J. Immunol. Methods 119:203-210, 1989). Briefly, cells were seeded onto 96-well microtiter plates at a density of 5×10^3 cells per well. The next day, the medium was replaced with DMEM supplemented with 7.5% DFCS and the cells were treated with the different fisetin derivatives alone or in the presence of 5 mM glutamate. Twenty four hours later, the medium in each well was aspirated and replaced with fresh medium containing 2.5 μg/ml MTT. After 4 hours of incubation at 37° C., cells were solubilized with 100 μA of a solution containing 50% dimethylformamide and 20% SDS (pH 4.7). The absorbance at 570 nm was measured on the following day with a microplate reader (Molecular Devices). Results obtained from the MTT assay correlated directly with the extent of cell death as confirmed visually. Controls employing wells without cells were used to determine the effects of the agents upon the assay chemistry.
As shown in panel (A) of FIG. 3, HT22 cells were untreated (ct) or treated with 10 μM fisetin (fis) in the absence of presence of 5 mM glutamate for 24 hr and GSH was measured enzymatically and normalized to protein. As shown in panel (B) of FIG. 3, HT22 cells in 96-well plates were treated with 5 mM glutamate and the indicated concentrations of fisetin. MTT reduction was measured after 24 hr.

[2] = system: human brain microvascular cells; test: Protein glycation in human brain microvascular cells exposed to glucose; type: cell-based; conditions: 1 μM fisetin
Protocol: In reference to FIG. 1, BSA was incubated with either 100 mM glucose (G) or 100 mM methylglyoxal (MG) for 14 days at 37° C. plus or minus 100 μM fisetin. The BSA was dialyzed vs. PBS run on SDS-PAGE and blotted with anti-carboxymethyl lysine (CML) (a glucose AGE) or anti-MG adducts from Dr. Brownlee. […] In FIG. 1, panel B, anti-MG only reacts with MG treated BSA and also causes protein polymerization. In FIG. 1, panel C, co-incubation with fisetin results in inhibition of glucose glycation in 2 assays, Western blotting with a-CML (BL, hatched bars) and a fluorescence assay for protein glycation (FL, clear bars). In FIG. 1, panel D, fisetin inhibited protein glycation caused by high glucose exposure of human brain microvascular cells. Cells were exposed to either 5 mM (−Glu) or 25 mM (+Glu) glucose for 5 days plus (F) or minus (C) 1 μM fisetin. Cells were then harvested and blotted with either anti-CML or MG antisera.

[3] = system: Akita mice; test: Urine albumin/creatinine ratio in Akita mice; type: in vivo; conditions: fisetin 0.05% in diet for 18 weeks
Protocol: Urine albumin concentration was determined by competitive enzyme-linked immunoadsorbent assay using an Albuwell M kit (Exocell, Philadelphia, Pa.). Urine creatinine concentration was determined by Jaffe's reaction of alkaline picrate with creatinine using a Creatinine Companion kit (Exocell). Results are expressed as the urine albumin-to-creatinine ratio (micrograms per milligram).
Male Akita mice were fed control diet or fisetin (0.05%) for 18 weeks beginning at 6 weeks of age. Kidney hypertrophy was assessed by weighing the kidneys. Kidney function was assessed by measuring the albumin/creatinine ratio in the urine. Fisetin reduced diabetes-induced renal hypertrophy and proteinuria. All data are mean±SD of N=5-7/group.

[4] = system: Akita mice; test: Motor nerve conduction velocity in Akita mice; type: in vivo; conditions: fisetin 0.05% in diet for 18 weeks
Protocol: Conduction velocity of large myelinated motor fibers in the sciatic:tibial nerve system was measured in mice under isoflurane anesthesia with nerve temperature maintained at 37° C., as previously described (Calcutt et al. Diabetes 39:663-666, 1990). Briefly, stimulating electrodes were placed at the left sciatic notch and Achilles tendon and recording electrodes placed in the interosseus muscles of the ipsilateral hind paw. Electromyograms were recorded on a storage oscilloscope after stimulation at each site using single square waves (5 v, 0.05 ms) and motor nerve conduction velocity (MNCV) calculated using the peak to peak distance of the resulting M waves and the distance between the two stimulation sites. The median of 3 separate MNCV measurements was used to represent values for each mouse.
Male Akita mice were fed control diet or fisetin (0.05%) for 18 weeks beginning at 6 weeks of age. Large fiber function was tested by measuring motor nerve conduction velocity and small fiber function by paw withdrawal to noxious heat. Diabetes-induced MNCV slowing and thermal hypoalgesia were ameliorated by fisetin treatment. All data are mean±SD of N=5-7/group. […] P<0.05.

[5] = system: C-reactive protein; test: Serum C-reactive protein in Akita mice (Western blot); type: in vivo; conditions: fisetin-rich diet
Protocol: C-reactive protein in serum was measured by SDS-PAGE and Western blotting analysis of mouse serum using an antibody from R&D.
C-reactive protein is an acute phase protein that increases during chronic inflammation such as is seen in diabetes. Equal amounts of serum from wild type, wild type+fisetin, Akita and Akita+fisetin mice were analyzed by SDS-PAGE and immunoblotting with an antibody to C-reactive protein. Samples from 6-7 mice were analyzed and the average intensity of the C-reactive protein band determined. The data were analyzed by ANOVA followed by Tukey's post test. *** P<0.001.

[6] = system: osteopontin (OPN); test: Kidney osteopontin (OPN) in Akita mice (immunoblot); type: in vivo; conditions: fisetin in diet, OPN band normalized to actin
Protocol: Kidneys were homogenized in phosphate buffered saline containing protease and phosphatase inhibitors. Equal amounts of protein, as determined by the BCA assay (Pierce), were solubilized in SDS-sample buffer containing 0.1 mM Na3VO4 and 1 mM phenylmethylsulfonyl fluoride (PMSF), boiled for 5 min and either analyzed immediately or stored frozen at −70° C. Proteins were separated on 10% SDS-polyacrylamide gels and transferred to nitrocellulose. Equal loading and transfer of the samples was confirmed by staining the nitrocellulose with Ponceau-S. Transfers were blocked for 1 h at room temperature with 5% nonfat milk in TBS/0.1% Tween 20 and then incubated overnight at 4° C. in the primary antibody diluted in 5% BSA in TBS/0.05% Tween 20. The primary antibodies used were: rabbit anti-osteopontin (Millipore) and actin-HRP (Cell Signaling). […]
OPN is a key regulator of the pathophysiological changes associated with diabetic nephropathy (Nicolas et al. Kidney Int. advance online publication, 3 Feb. 2010). […] Kidney samples from 6-7 mice were analyzed and the average intensity of the OPN band normalized to actin is shown in the graph. […] In FIG. 10, the data was analyzed by ANOVA followed by Tukey's post test. *** P<0.001

O=c1c(O)c(-c2ccc(O)c(O)c2)oc2cc(O)ccc12 [fisetin, 2-(3,4-dihydroxyphenyl)-3,7-dihydroxychromen-4-one]
glutamate toxicity (MTT reduction) [1]: Reduction
increase of CML and MG adducts caused by high glucose ([2]; 25 mM glucose 5 days): blocked, at least in part
endogenous glycation of some proteins ([2]; low glucose medium (5 mM)): inhibits
proteinuria (urine albumin/creatinine ratio) [3]: almost completely prevented
proteinuria (urine albumin/creatinine ratio) ([3]; listed as Fisetin): reduced
diabetes-induced MNCV slowing [4]: ameliorated; also recorded: prevented
diabetes-induced increase in serum C-reactive protein [5]: largely prevented
diabetes-dependent upregulation of osteopontin (OPN) in kidney [6]: Prevented

From patent publication US8466195B2, “Methods and compositions for treating complications of diabetes and vascular diseases using flavones” (Salk Institute for Biological Studies, priority 2009, dated 2013)
